The supplement of paper PMC11208160

Assay: recombinant barcode read abundance after kanamycin selection (control-corrected) (log10(CPM+1)); higher = more efficient recombination; sequences stand for … in AGTGCAGAGAAAATCGGCCAGTTTTCTCTGCCTGCAGTCCGCATGCCGT…AGATTTATGCAGCGGACTGCCTTTCTCCCAAAGTGATAAACCGGACAGTATCATGGACCGGTTTTCCCGGTAATCCGTATTTGCAAGGTTGGTTTCACT; site = the 11-nt target
In short: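 In E. coli, a pooled library matched targets to IS621 bridge RNA target-binding loops and was introduced alongside a donor plasmid. Cells went onto chloramphenicol/ampicillin/kanamycin with 0.1 mM IPTG or onto chloramphenicol/ampicillin LB agar as control, in duplicate. Recombination efficiency, from recombinant-junction barcodes as counts per million, is averaged and control-corrected. It is reported as log10(CPM+1).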
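Also: IS621 recombinase and bridge RNA in Escherichia coli cells.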

Row | Sequence | recombinant barcode read abundance (log10)
1 | TCAGATTCTTGGGTTCTAACCTGTTGCCT (site TCAAATTCTAG) | 0.0231
2 | TCAGATTCTTGGGTTCTAACCTGTTGCCT (site TCACATTCTAG) | 0.0298
3 | TCAGATTCTTGGGTTCTAACCTGTTGCCT (site TCAGATTCTAG) | 0.78
4 | TCAGATTCTTGGGTTCTAACCTGTTGCCT (site TCATATTCTAG) | 0.114
5 | TCAGGAGCTTGGGTTCTAACCTGTTGCGG (site TCAGGAGCTCC) | 2.07
6 | TCAGGAGCTTGGGTTCTAACCTGTTGCGG (site TCAGGAGCTCT) | 1.85
7 | TCAGGCCCTTGGGTTCTAACCTGTTGCCT (site TAAGGCCCTAA) | 0.0837
8 | TCAGGCCCTTGGGTTCTAACCTGTTGCCT (site TCAGGCCCTAG) | 0.702
9 | TCATGACCTTGGGTTCTAACCTGTTGCAT (site CTTAACACTCG) | 0.159
10 | TCATGACCTTGGGTTCTAACCTGTTGCAT (site TCATGACCTAT) | 1.29
11 | TCCAACACTTGGGTTCTAACCTGTTGCCG (site TCCAACACTCG) | 0.574
12 | TCCAACACTTGGGTTCTAACCTGTTGCCG (site TCCAATACTCG) | 0.24
13 | TCCAACCCTTGGGTTCTAACCTGTTGCCA (site GCCAACCCTTA) | 0.0929
14 | TCCAACCCTTGGGTTCTAACCTGTTGCCA (site TCCAACCCTTG) | 0.715
15 | TCCAAGGCTTGGGTTCTAACCTGTTGCCT (site TCAAAGGCTAG) | 0.0841
16 | TCCAAGGCTTGGGTTCTAACCTGTTGCCT (site TCCAAGGCTAG) | 0.107
17 | TCCAAGGCTTGGGTTCTAACCTGTTGCCT (site TCGAAGGCTAG) | 0.147
18 | TCCAAGGCTTGGGTTCTAACCTGTTGCCT (site TCTAAGGCTAG) | 1.48
19 | TCCACAACTTGGGTTCTAACCTGTTGCCT (site TCCACAACTAG) | 0.273
20 | TCCACAACTTGGGTTCTAACCTGTTGCCT (site TCCACACCTAG) | 0.122
21 | TCCACAACTTGGGTTCTAACCTGTTGCCT (site TCCACAGCTAG) | 0.283
22 | TCCACAACTTGGGTTCTAACCTGTTGCCT (site TCCACATCTAG) | 0.193

Row | Sequence | recombinant barcode read abundance (log10)
23 | TCCACATCTTGGGTTCTAACCTGTTGCCT (site TCCACAACTAG) | 0.0262
24 | TCCACATCTTGGGTTCTAACCTGTTGCCT (site TCCACACCTAG) | 0.793
25 | TCCACATCTTGGGTTCTAACCTGTTGCCT (site TCCACAGCTAG) | 0.00992
26 | TCCACATCTTGGGTTCTAACCTGTTGCCT (site TCCACATCTAG) | 0.477
27 | TCCATCCCTTGGGTTCTAACCTGTTGCTA (site TCCAGTCCTTA) | 0.0637
28 | TCCATCCCTTGGGTTCTAACCTGTTGCTA (site TCCATCCCTTA) | 0.605
29 | TCCCAGTCTTGGGTTCTAACCTGTTGCAT (site TCCCAGTCTAA) | 0.542
30 | TCCCAGTCTTGGGTTCTAACCTGTTGCAT (site TCCCAGTCTAC) | 0.104
31 | TCCCAGTCTTGGGTTCTAACCTGTTGCAT (site TCCCAGTCTAG) | 0.242
32 | TCCCAGTCTTGGGTTCTAACCTGTTGCAT (site TCCCAGTCTAT) | 1.88
33 | TCCCAGTCTTGGGTTCTAACCTGTTGCCT (site TCCCAGTCTAA) | 0.0986
34 | TCCCAGTCTTGGGTTCTAACCTGTTGCCT (site TCCCAGTCTAC) | 0.889
35 | TCCCAGTCTTGGGTTCTAACCTGTTGCCT (site TCCCAGTCTAG) | 1.82
36 | TCCCAGTCTTGGGTTCTAACCTGTTGCCT (site TCCCAGTCTAT) | 0.594
37 | TCCCAGTCTTGGGTTCTAACCTGTTGCGT (site TCCCAGTCTAA) | 0.433
38 | TCCCAGTCTTGGGTTCTAACCTGTTGCGT (site TCCCAGTCTAC) | 2.59
39 | TCCCAGTCTTGGGTTCTAACCTGTTGCGT (site TCCCAGTCTAG) | 0.375
40 | TCCCAGTCTTGGGTTCTAACCTGTTGCGT (site TCCCAGTCTAT) | 1.6
41 | TCCCAGTCTTGGGTTCTAACCTGTTGCTT (site TCCCAGTCTAA) | 0.681
42 | TCCCAGTCTTGGGTTCTAACCTGTTGCTT (site TCCCAGTCTAC) | 0.0373
43 | TCCCAGTCTTGGGTTCTAACCTGTTGCTT (site TCCCAGTCTAG) | 0.684
44 | TCCCAGTCTTGGGTTCTAACCTGTTGCTT (site TCCCAGTCTAT) | 1.19

Row | Sequence | recombinant barcode read abundance (log10)
45 | TCCCATACTTGGGTTCTAACCTGTTGCCT (site TCCCATACTAG) | 0.493
46 | TCCCATACTTGGGTTCTAACCTGTTGCCT (site TCCCATCCTAG) | 0.33
47 | TCCCATACTTGGGTTCTAACCTGTTGCCT (site TCCCATGCTAG) | 0.109
48 | TCCCATACTTGGGTTCTAACCTGTTGCCT (site TCCCATTCTAG) | 0.0766
49 | TCCCCGGCTTGGGTTCTAACCTGTTGCCT (site TACCCGCCTAG) | 0.0487
50 | TCCCCGGCTTGGGTTCTAACCTGTTGCCT (site TCCCCGGCTAG) | 0.285
51 | TCCCGAACTTGGGTTCTAACCTGTTGCCT (site TCCCGAACTAG) | 0.598
52 | TCCCGAACTTGGGTTCTAACCTGTTGCCT (site TCCCGACCTAG) | 0.337
53 | TCCCGAACTTGGGTTCTAACCTGTTGCCT (site TCCCGAGCTAG) | 0.173
54 | TCCCGAACTTGGGTTCTAACCTGTTGCCT (site TCCCGATCTAG) | 0.0125
55 | TCCCGTCCTTGGGTTCTAACCTGTTGCCT (site TCCCGTCCTAG) | 0.636
56 | TCCCGTCCTTGGGTTCTAACCTGTTGCCT (site TCCCTTCCTAG) | 0.196
57 | TCCGACACTTGGGTTCTAACCTGTTGCCT (site TACGACACTAG) | 0.227
58 | TCCGACACTTGGGTTCTAACCTGTTGCCT (site TCCGACACTAG) | 1.95
59 | TCCGAGACTTGGGTTCTAACCTGTTGCGT (site TCCGAGACTAC) | 1.56
60 | TCCGAGACTTGGGTTCTAACCTGTTGCGT (site TTCGAAACTAC) | 0.226
61 | TCCGAGCCTTGGGTTCTAACCTGTTGCGT (site TCCGAGCCTAC) | 2.18
62 | TCCGAGCCTTGGGTTCTAACCTGTTGCGT (site TCCGAGCCTAT) | 1.03
63 | TCCGAGGCTTGGGTTCTAACCTGTTGCTG (site TCAGAGGCTCA) | 0.266
64 | TCCGAGGCTTGGGTTCTAACCTGTTGCTG (site TCCGAGGCTCA) | 0.739
65 | TCCGAGGCTTGGGTTCTAACCTGTTGCTG (site TCGGAGGCTCA) | 0.521
66 | TCCGAGGCTTGGGTTCTAACCTGTTGCTG (site TCTGAGGCTCA) | 0.241

Row | Sequence | recombinant barcode read abundance (log10)
67 | TCCGATACTTGGGTTCTAACCTGTTGCGT (site GTGTGGCCTTG) | 0.11
68 | TCCGATACTTGGGTTCTAACCTGTTGCGT (site TCCGATACTAC) | 1.64
69 | TCCGGCGCTTGGGTTCTAACCTGTTGCGG (site CTTACTACTTG) | 0.0112
70 | TCCGGCGCTTGGGTTCTAACCTGTTGCGG (site TCCGGCGCTCC) | 1.75
71 | TCCGTATCTTGGGTTCTAACCTGTTGCAG (site GAGTGGCCTTC) | 0.16
72 | TCCGTATCTTGGGTTCTAACCTGTTGCAG (site TCCGTATCTCT) | 1.05
73 | TCCGTCCCTTGGGTTCTAACCTGTTGCAT (site TCCGACCCTGT) | 0.0832
74 | TCCGTCCCTTGGGTTCTAACCTGTTGCAT (site TCCGTCCCTAT) | 1.4
75 | TCCGTGACTTGGGTTCTAACCTGTTGCCT (site TCCGTGACTAG) | 2.07
76 | TCCGTGACTTGGGTTCTAACCTGTTGCCT (site TCCGTGCCTAG) | 0
77 | TCCGTGACTTGGGTTCTAACCTGTTGCCT (site TCCGTGGCTAG) | 0.436
78 | TCCGTGACTTGGGTTCTAACCTGTTGCCT (site TCCGTGTCTAG) | 0.352
79 | TCCTAACCTTGGGTTCTAACCTGTTGCTG (site ACCTAACCTCT) | 0.0586
80 | TCCTAACCTTGGGTTCTAACCTGTTGCTG (site TCCTAACCTCA) | 1.37
81 | TCCTAATCTTGGGTTCTAACCTGTTGCAT (site TCCTAACCTAG) | 0.0364
82 | TCCTAATCTTGGGTTCTAACCTGTTGCAT (site TCCTAATCTAT) | 0.607
83 | TCCTACCCTTGGGTTCTAACCTGTTGCCT (site TACTACCCTAG) | 0.0977
84 | TCCTACCCTTGGGTTCTAACCTGTTGCCT (site TCCTACCCTAG) | 1.36
85 | TCCTACCCTTGGGTTCTAACCTGTTGCCT (site TGCTACCCTAG) | 0.052
86 | TCCTACCCTTGGGTTCTAACCTGTTGCCT (site TTCTACCCTAG) | 0.271
